Laboratory results: patent publication US20220194940A1, “HETEROCYCLIC INHIBITORS OF TYROSINE KINASE” (Board of Regents, The University of Texas System, priority 2019, published 2022)

Key:
Assay type in all cases: cell-based
[1] = target: EGFR A767insASV (Homo sapiens, UniProt P00533, cells depend on it, form not given); assay: Ba/F3 cell viability, EGFR A767insASV; conditions: logarithm of IC50, second listing in Table 2 (r23)
Description: (§1) 72 hours after transduction, 2 μg/ml puromycin (Invitrogen) was added to the medium.

[2] = target: T1, EGFR P772insDNP (Homo sapiens, UniProt P00533, INS772DNP); assay: Ba/F3 cell viability, EGFR P772insDNP; conditions: logarithm of IC50
T1 construct: expressed in transfected cells; host or cells: Ba/F3 (retroviral transduction, pBABE-Puro-based vectors)
Description: as §1

[3] = target: T2, EGFR V769insGVV (Homo sapiens, UniProt P00533, INS769GVV); assay: Ba/F3 cell viability, EGFR V769insGVV; conditions: logarithm of IC50
T2 construct: expressed in transfected cells; host or cells: Ba/F3 (retroviral transduction, pBABE-Puro-based vectors)
Description: as §1

[4] = target: T3, EGFR V769insMASVD (Homo sapiens, UniProt P00533, INS769MASVD); assay: Ba/F3 cell viability, EGFR V769insMASVD; conditions: logarithm of IC50
T3 construct: expressed in transfected cells; host or cells: Ba/F3 (retroviral transduction, pBABE-Puro-based vectors)
Description: as §1

[5] = target: T4, EGFR D770del insGY (Homo sapiens, UniProt P00533, D770Y/INS769G); assay: Ba/F3 cell viability, EGFR D770del insGY; conditions: logarithm of IC50
T4 construct: expressed in transfected cells; host or cells: Ba/F3 (retroviral transduction, pBABE-Puro-based vectors)
Description: as §1

[6] = target: T5, EGFR S768I T790M (Homo sapiens, UniProt P00533, S768I/T790M); assay: Ba/F3 cell viability, EGFR S768I T790M; conditions: logarithm of IC50
T5 construct: expressed in transfected cells; host or cells: Ba/F3 (retroviral transduction, pBABE-Puro-based vectors)
Description: as §1

[7] = target: T6, EGFR D770insNPG/T790M (Homo sapiens, UniProt P00533, INS770NPG/T790M); assay: Ba/F3 cell viability, EGFR D770insNPG/T790M; conditions: logarithm of IC50
T6 construct: expressed in transfected cells; host or cells: Ba/F3 (retroviral transduction, pBABE-Puro-based vectors)
Description: as §1

[8] = target: T7, EGFR H773insAH (Homo sapiens, UniProt P00533, INS773AH); assay: Ba/F3 cell viability, EGFR H773insAH; conditions: logarithm of IC50
T7 construct: expressed in transfected cells; host or cells: Ba/F3 (retroviral transduction, pBABE-Puro-based vectors)
Description: as §1

[9] = target: T8, EGFR V769insGSV (Homo sapiens, UniProt P00533, INS769GSV); assay: Ba/F3 cell viability, EGFR V769insGSV; conditions: logarithm of IC50
T8 construct: expressed in transfected cells; host or cells: Ba/F3 (retroviral transduction, pBABE-Puro-based vectors)
Description: as §1

[10] = target: T9, EGFR V769L (Homo sapiens, UniProt P00533, V769L); assay: Ba/F3 cell viability, EGFR V769L; conditions: logarithm of IC50
T9 construct: expressed in transfected cells; host or cells: Ba/F3 (retroviral transduction, pBABE-Puro-based vectors)
Description: as §1

[11] = target: T10, EGFR S768dupSVD/T790M (Homo sapiens, UniProt P00533, DUP768-770/T790M); assay: Ba/F3 cell viability, EGFR S768dupSVD/T790M; conditions: logarithm of IC50
T10 construct: expressed in transfected cells; host or cells: Ba/F3 (retroviral transduction, pBABE-Puro-based vectors)
Description: as §1

[12] = target: T11, EGFR WT (Homo sapiens, UniProt P00533); assay: Ba/F3 cell viability (Cell Titer Glo), WT EGFR
T11 construct: expressed in transfected cells; host or cells: Ba/F3 (retroviral transduction, pBABE-Puro-based vectors)
Description: as §1

[13] = target: T12, EGFR D770insNPG/C797S (Homo sapiens, UniProt P00533, C797S/INS770NPG); assay: Ba/F3 cell viability, EGFR D770insNPG/C797S; conditions: logarithm of IC50
T12 construct: expressed in transfected cells; host or cells: Ba/F3 (retroviral transduction, pBABE-Puro-based vectors)
Description: as §1

[14] = target: T13, EGFR N771insHH (Homo sapiens, UniProt P00533, INS771HH); assay: Ba/F3 cell viability, EGFR N771insHH; conditions: logarithm of IC50
T13 construct: expressed in transfected cells; host or cells: Ba/F3 (retroviral transduction, pBABE-Puro-based vectors)
Description: as §1

[15] = target: T14, EGFR A767insTLA (Homo sapiens, UniProt P00533, INS767TLA); assay: Ba/F3 cell viability, EGFR A767insTLA; conditions: logarithm of IC50
T14 construct: expressed in transfected cells; host or cells: Ba/F3 (retroviral transduction, pBABE-Puro-based vectors)
Description: as §1

[16] = target: T15, EGFR H773L/V774M (Homo sapiens, UniProt P00533, H773L/V774M); assay: Ba/F3 cell viability, EGFR H773L/V774M; conditions: logarithm of IC50
T15 construct: expressed in transfected cells; host or cells: Ba/F3 (retroviral transduction, pBABE-Puro-based vectors)
Description: as §1

[17] = target: T16, EGFR N771insSVDNR (Homo sapiens, UniProt P00533, INS771SVDNR); assay: Ba/F3 cell viability, EGFR N771insSVDNR
T16 construct: expressed in transfected cells; host or cells: Ba/F3 (retroviral transduction, pBABE-Puro-based vectors)
Description: as §1

[18] = target: T17, EGFR S768dupSVD/C797S (Homo sapiens, UniProt P00533, C797S/DUP768-770); assay: Ba/F3 cell viability, EGFR S768dupSVD/C797S; conditions: logarithm of IC50
T17 construct: expressed in transfected cells; host or cells: Ba/F3 (retroviral transduction, pBABE-Puro-based vectors)
Description: as §1

T11 sequence (P00533 25-1210): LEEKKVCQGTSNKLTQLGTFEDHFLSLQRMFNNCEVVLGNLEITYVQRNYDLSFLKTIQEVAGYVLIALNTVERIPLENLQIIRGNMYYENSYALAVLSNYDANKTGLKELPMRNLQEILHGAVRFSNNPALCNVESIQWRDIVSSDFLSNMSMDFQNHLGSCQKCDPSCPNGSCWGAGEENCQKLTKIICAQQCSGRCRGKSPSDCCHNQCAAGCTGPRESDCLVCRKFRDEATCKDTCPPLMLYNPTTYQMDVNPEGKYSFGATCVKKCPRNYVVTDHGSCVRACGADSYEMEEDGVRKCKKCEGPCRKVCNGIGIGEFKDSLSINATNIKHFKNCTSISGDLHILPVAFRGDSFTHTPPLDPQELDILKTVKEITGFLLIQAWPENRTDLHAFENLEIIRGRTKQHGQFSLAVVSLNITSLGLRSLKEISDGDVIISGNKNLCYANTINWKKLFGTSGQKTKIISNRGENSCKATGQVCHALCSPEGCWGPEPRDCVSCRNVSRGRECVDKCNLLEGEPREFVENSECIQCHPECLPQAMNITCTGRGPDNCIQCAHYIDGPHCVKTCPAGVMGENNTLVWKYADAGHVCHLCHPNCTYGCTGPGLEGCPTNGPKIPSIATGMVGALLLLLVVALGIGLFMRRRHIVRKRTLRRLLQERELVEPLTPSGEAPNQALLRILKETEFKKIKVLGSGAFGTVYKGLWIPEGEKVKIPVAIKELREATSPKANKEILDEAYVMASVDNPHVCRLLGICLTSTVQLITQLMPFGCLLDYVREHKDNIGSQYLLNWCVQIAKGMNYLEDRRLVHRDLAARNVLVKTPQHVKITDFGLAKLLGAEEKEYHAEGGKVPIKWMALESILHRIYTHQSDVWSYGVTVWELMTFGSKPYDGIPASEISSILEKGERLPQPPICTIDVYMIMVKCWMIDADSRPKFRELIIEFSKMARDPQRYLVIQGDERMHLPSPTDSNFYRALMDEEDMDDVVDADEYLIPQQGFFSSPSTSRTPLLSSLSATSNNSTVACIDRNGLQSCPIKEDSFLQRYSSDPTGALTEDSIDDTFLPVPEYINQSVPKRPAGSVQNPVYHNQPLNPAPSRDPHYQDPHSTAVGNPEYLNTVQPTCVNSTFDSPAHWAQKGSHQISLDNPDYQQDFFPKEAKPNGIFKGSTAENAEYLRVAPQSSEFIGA
T16 sequence (P00533 with tags, fused parts or gaps INS771SVDNR): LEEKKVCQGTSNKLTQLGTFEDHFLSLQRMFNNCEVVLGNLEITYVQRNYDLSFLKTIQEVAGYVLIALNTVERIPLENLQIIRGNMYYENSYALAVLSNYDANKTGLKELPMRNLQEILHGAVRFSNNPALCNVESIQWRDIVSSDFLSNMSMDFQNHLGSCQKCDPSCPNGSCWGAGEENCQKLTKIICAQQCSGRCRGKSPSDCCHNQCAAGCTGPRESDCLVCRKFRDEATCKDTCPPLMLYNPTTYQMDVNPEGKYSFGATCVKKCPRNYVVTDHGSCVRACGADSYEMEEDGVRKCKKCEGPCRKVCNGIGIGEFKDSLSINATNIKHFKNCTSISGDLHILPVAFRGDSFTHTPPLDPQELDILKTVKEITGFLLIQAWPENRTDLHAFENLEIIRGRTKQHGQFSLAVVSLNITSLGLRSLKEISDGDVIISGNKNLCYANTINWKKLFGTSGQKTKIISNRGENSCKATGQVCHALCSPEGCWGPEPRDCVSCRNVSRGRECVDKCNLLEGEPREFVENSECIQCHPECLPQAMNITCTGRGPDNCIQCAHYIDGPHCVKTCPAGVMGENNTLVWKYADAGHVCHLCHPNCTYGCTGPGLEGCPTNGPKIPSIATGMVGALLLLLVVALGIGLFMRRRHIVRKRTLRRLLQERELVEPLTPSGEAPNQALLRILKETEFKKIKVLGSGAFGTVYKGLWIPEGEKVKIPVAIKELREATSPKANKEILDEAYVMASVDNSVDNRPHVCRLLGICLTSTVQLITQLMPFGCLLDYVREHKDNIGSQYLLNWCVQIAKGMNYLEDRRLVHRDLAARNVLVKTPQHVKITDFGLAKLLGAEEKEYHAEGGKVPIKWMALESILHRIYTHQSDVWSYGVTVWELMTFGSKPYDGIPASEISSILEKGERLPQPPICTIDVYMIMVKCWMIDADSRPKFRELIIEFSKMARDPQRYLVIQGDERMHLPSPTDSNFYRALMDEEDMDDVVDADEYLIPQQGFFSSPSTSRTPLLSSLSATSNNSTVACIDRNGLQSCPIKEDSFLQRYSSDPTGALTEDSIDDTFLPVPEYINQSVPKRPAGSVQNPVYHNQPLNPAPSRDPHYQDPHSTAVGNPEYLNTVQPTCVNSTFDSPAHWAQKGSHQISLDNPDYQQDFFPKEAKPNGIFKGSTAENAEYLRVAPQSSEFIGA
T15 sequence (P00533 25-1210 H773L/V774M): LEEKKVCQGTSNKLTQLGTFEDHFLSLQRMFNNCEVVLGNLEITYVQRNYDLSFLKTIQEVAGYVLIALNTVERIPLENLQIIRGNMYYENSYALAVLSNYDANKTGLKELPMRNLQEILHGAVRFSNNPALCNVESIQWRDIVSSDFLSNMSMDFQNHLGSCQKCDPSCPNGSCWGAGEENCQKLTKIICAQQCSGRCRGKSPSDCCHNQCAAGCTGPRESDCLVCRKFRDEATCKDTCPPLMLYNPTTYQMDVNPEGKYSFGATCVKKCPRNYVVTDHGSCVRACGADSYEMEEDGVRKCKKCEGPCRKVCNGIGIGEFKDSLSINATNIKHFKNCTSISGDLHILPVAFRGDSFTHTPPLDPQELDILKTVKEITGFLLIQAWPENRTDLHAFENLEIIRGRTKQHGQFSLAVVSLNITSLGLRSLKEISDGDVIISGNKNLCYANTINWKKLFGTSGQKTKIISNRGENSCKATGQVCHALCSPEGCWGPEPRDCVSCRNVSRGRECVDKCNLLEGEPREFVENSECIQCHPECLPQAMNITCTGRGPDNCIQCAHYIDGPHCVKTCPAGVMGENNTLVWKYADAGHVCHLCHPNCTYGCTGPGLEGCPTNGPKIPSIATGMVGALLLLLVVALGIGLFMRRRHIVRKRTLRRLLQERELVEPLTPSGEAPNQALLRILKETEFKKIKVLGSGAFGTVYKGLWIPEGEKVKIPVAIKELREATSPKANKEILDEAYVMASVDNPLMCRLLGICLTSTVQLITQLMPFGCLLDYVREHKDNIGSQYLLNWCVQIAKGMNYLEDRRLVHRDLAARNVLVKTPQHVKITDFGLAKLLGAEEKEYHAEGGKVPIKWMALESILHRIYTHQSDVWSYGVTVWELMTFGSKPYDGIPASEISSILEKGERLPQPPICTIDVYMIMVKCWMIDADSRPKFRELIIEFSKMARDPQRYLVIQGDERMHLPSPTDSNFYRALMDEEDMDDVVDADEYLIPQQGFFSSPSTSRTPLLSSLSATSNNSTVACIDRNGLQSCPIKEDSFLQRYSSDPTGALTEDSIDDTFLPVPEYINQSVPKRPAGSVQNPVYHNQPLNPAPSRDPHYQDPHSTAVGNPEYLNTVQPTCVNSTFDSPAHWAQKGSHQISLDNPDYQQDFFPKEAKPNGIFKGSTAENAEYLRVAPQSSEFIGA
T8 sequence (P00533 with tags, fused parts or gaps INS769GSV): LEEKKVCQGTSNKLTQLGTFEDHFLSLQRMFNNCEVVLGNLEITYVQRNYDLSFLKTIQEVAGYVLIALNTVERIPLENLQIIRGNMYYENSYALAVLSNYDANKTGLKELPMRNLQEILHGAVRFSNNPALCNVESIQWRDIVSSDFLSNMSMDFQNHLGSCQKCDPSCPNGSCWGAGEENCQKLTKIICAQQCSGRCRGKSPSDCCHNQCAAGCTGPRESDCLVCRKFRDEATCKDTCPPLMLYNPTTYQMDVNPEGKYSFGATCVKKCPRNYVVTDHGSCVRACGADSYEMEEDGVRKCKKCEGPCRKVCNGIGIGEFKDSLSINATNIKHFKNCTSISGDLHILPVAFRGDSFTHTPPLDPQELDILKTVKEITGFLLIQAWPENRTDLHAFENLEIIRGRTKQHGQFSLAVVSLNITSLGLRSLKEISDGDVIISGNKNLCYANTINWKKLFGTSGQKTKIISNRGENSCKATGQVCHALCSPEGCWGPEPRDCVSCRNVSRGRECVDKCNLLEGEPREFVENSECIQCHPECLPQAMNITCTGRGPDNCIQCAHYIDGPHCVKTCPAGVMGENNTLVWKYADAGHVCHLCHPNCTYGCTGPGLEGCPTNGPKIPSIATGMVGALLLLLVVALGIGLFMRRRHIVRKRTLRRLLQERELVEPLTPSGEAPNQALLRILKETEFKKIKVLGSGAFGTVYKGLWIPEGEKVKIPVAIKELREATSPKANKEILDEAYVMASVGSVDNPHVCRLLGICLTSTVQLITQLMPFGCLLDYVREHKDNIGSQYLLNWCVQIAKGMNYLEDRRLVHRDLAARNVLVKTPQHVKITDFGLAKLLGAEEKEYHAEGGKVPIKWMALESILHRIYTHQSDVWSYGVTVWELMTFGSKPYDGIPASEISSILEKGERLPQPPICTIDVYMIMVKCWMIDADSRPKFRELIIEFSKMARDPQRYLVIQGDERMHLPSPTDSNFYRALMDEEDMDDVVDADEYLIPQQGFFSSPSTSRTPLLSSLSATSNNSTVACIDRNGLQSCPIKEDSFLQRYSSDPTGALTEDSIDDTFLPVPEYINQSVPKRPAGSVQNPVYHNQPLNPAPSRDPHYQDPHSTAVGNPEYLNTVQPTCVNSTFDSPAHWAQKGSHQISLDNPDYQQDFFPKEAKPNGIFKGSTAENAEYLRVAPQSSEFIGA

SMILES	Log(IC50, nM) [1]	Log(IC50, nM) [2]	Log(IC50, nM) [3]	Log(IC50, nM) [4]	Log(IC50, nM) [5]	Log(IC50, nM) [6]	Log(IC50, nM) [7]	Log(IC50, nM) [8]	Log(IC50, nM) [9]	Log(IC50, nM) [10]	Log(IC50, nM) [11]	Log(IC50, nM) ([12]; Ba/F3 EGFR WT, comparison line of Table 3)	Log(IC50, nM) ([12]; logarithm of IC50, Ba/F3 cells expressing EGFR WT, Cell Titer Glo, 3 days, Table 2)	Log(IC50, nM) [13]	Log(IC50, nM) [14]	Log(IC50, nM) [15]	Log(IC50, nM) [16]	Log(IC50, nM) ([17]; logarithm of IC50, first listing in Table 2 (r10))	Log(IC50, nM) ([17]; logarithm of IC50, second listing in Table 2 (r26))	Log(IC50, nM) [18]
CN(C)C/C=C/C(=O)Nc1cc2c(Nc3ccc(Cl)c(Br)c3)ncnc2cn1 [Example 1, (E)-N-(4-((3-Bromo-4-chlorophenyl)amino)pyrido[3,4-d]pyrimidin-6-yl)-4-(dimethylamino)but-2-enamide]	0.55 nM	–	–	–	–	–	–	–	–	–	–	–	–	–	–	–	–	–	–	–
CN(C)C/C=C/C(=O)Nc1cc2c(Nc3ccc(Cl)c(Cl)c3)ncnc2cn1 [Example 2, (E)-N-(4-((3,4-dichlorophenyl)amino)pyrido[3,4-d]pyrimidin-6-yl)-4-(dimethylamino)but-2-enamide]	0.51 nM	0.94 log(nM)	1.40 log(nM)	0.88 log10(nM)	0.71 log10(nM)	0.81 log10(nM)	2.40 log10(nM)	0.88 log10(nM)	0.98 log(nM)	0.98 log(nM)	2.73 log10(nM)	1.03 log(nM)	1.03 log(nM)	2.73 log10(nM)	0.33 log10(nM)	0.83 log(nM)	1.41 log(nM)	0.98 log(nM)	1.08 log(nM)	3.06 log(nM)
